Where no end group is shown, it is not given here. red fluorescent dye = not defined here
Columns and labels:
olfactory bulb cells = test: In vivo TUNEL in olfactory bulb after repeated intranasal delivery; design: species or system C57BL/6 mice; conditions: repeated intranasal treatment for three days
Excerpt: To confirm the apoptotic inducing effect of ZaTa in vivo, ZaTa was delivered to the mouse brain via the nasal cavity, a minimally invasive procedure compared to the stereotactic surgery. Intranasal delivery of compounds into the brain is an efficient and effective way for local delivery of compounds, without the need for passing the blood brain barriers, the major obstacle for studying the effect of different inhibitors/activators in CNS (Vyas, et al. (2005) Curr. Drug Deliv. 2:165-175; Hrafnkelsdottir, et al. (2005) Biol. Pharm. Bull. 28:1038-1042). […] This was visualized by double labeling of the brain sections with fluorescent TUNEL and a nuclear marker.
Depending on the intended use, a pharmaceutical composition of the invention can be administered by any suitable means, including parenteral injection (such as intraperitoneal, subcutaneous, intratumoral or intramuscular injection), orally or by topical application (e.g., transdermal or via a mucosal surface). By pharmaceutically acceptable formulation is meant, a composition or formulation that allows for the effective distribution of the nucleic acid molecules of the instant invention in the physical location most suitable for their desired activity. […]

TrkB = TrkB (Homo sapiens, UniProt Q16620); test: In vitro kinase assay TrkB; format: biochemical; conditions: ten times higher concentration than 0.1 μM
TrkB, sequence (Q16620 32-822, species assumed): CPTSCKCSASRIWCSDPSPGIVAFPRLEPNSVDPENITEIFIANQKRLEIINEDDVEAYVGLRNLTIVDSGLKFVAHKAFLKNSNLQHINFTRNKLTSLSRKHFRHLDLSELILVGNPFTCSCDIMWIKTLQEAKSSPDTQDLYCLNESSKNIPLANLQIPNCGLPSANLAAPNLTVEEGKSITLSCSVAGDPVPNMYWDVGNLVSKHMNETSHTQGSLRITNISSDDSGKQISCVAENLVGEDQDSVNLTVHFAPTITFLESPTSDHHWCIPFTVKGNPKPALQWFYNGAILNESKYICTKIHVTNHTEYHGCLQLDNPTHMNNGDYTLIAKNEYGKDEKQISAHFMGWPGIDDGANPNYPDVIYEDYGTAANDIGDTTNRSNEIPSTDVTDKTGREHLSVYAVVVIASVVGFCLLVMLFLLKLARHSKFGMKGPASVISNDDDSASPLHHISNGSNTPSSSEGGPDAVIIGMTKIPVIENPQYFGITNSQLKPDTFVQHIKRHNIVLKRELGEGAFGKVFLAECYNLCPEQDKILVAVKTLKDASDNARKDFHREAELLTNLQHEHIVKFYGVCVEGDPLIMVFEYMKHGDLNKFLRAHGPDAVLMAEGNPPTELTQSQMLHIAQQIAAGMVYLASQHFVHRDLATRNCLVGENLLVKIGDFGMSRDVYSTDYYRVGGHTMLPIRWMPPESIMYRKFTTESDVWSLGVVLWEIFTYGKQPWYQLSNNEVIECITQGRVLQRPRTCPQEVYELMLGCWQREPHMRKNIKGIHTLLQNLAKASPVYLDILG
Protocol: As a specific substrate, the phosphorylation level of GSK-3[…] at Ser-9 was also evaluated. […] The decrease was specific to the AKT phosphorylation site on GSK-3[…] at Ser-9, since a change in the phosphorylation level of GSK-3[…] at Tyr-216 or GSK-3[…] at Tyr-279 was not observed. Moreover, the in vivo reduction of the phosphorylation of AKT substrates was more obvious at the injection site, since a significant change in the phosphorylation of AKT substrates in the frontal cortex or cerebellum between the two hemispheres was not observed. […] To test the specificity/selectivity of ZaTa as the inhibitor of AKT1 versus the other major kinases, a series of in vitro kinase assays was performed at IC50 for AKT1 and at ten times higher concentrations. A panel of the following 32 kinases was first tested in vitro using the active form of each kinase and a specific substrate: AKT2, AKT3, PKA, PKC[…], PKC, PI3K[…], PI3K[…], PI3K, SGK, PAK2, PAK3, SAPK2/p38, Abl, CaMKII, CDK1/cyclinB, CDK5/p35, CK1, CK2, CSK, GSK3[…], GSK3[…], JNK1[…]1, MAPK1, p70S6K, PDGFR[…], PDGFR[…], PDK1, PKG1[…], TrkB, JAK2, JAK3, and Syk. […] However, at ten times higher concentration, ZaTa inhibited AKT2 (63%), PI3K[…] (72%), p70S6K (64%), SGK (73%), PAK3 (83%), JAK3 (79%), TrkB (84%), and Abl (42%). […]

AKT = target: T1, AKT (Homo sapiens, UniProt P31749); test: Screen of PKAc peptide library for effect on catalytic activity of AKT; format: biochemical; conditions: single peptide
T1 construct: purchased Upstate Biotechnology
T1 sequence (P31749 whole entry): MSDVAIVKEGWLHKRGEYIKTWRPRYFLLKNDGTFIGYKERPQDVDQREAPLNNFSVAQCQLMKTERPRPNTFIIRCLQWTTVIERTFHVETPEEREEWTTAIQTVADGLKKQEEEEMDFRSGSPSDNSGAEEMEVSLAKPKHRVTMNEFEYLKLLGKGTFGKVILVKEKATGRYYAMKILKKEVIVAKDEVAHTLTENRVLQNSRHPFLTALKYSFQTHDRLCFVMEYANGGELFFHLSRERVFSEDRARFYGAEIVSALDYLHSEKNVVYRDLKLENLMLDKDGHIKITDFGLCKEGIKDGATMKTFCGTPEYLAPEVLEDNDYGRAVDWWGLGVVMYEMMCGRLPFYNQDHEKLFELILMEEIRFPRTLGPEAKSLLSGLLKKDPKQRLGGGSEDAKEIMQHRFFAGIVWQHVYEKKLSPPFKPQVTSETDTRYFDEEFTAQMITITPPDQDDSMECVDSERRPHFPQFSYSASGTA
Excerpt: Unlike PKAc and protein kinase C (PKC) for which potent inhibitor peptides are readily available and widely used, inhibitors of AKT are generally lacking (Brazil, et al. (2004) supra). […] Moreover, optimal substrate motifs for AKT have been modified to design AKT inhibitors (Obata, et al. (2000) J. Biol. Chem. 275:36108-36115). Because the full-length PKAc protein inhibited the catalytic activity of AKT, a peptide library based on the human (GENBANK Accession No. NP_002721; SEQ ID NO:1) and bovine (GENBANK Accession No. CAA47627; SEQ ID NO:2) PKAc protein sequences was designed and synthesized. This library contained 96 overlapping peptides (Table 1), covering the full-length protein sequence of human and bovine PKAc from the N- to C-terminus. The library was extensively screened to identify fragments of PKAc that mediated the inhibitory effect of PKAc toward AKT.
These peptides included peptide 49 (SEQ ID NO:56), 53 (SEQ ID NO:60), 62 (SEQ ID NO:69), 63 (SEQ ID NO:70) and 64 (SEQ ID NO:71). Combinations of consecutive overlapping peptide fragments were also assayed for an effect on the catalytic activity of AKT. A significant inhibitory effect was also observed when peptides 25 through 36 were combined (i.e., SEQ ID NOs:32-43), peptides 37 through 48 were combined (i.e., SEQ ID NOs:44-55), peptides 49 through 60 were combined (i.e., SEQ ID NOs:56-67), and peptides 61 through 72 were combined (i.e., SEQ ID NOs:68-79).

| Substance | number of apoptotic cells in olfactory bulb (olfactory bulb cells) | inhibition of TrkB (TrkB) [%] | inhibitory effect toward AKT, individual library peptides (AKT) |
| --- | --- | --- | --- |
| labeled ZaTa: ZaTa peptide labeled with a red fluorescent dye at its N-terminus ({red fluorescent dye}-AKRVKGRTWTLCGTPEY; reading uncertain) | significantly increased | – | – |
| AKRVKGRTWTLCGTPEY [ZaTa] | – | 84 | significant inhibitory effects |

Source: patent US8541670B2, “Compositions and methods for inhibiting tumor cell growth” (priority 2007, dated 2013)
